US10662182B2, “Microbiocidal thiazole derivatives” (SYNGENTA PARTICIPATIONS AG, priority 2016, dated 2020)

Columns and labels:
[1] = system: Blumeria graminis f. Sp. Tritici (Erysiphe graminis f. Sp. Tritici); assay: Blumeria graminis f. sp. tritici / wheat / leaf disc preventative (powdery mildew on wheat); format: in vivo; details: foliar, 200 ppm in the formulation, wheat leaf segments cv. Kanzler, compared to untreated checks, read-out: disease control
Text: Blumeria graminis f. Sp. Tritici (Erysiphe graminis f. Sp. Tritici)/Wheat/Leaf Disc Preventative (Powdery Mildew on Wheat) Wheat leaf segments cv. Kanzler are placed on agar in a multiwell plate (24-well format) and sprayed with the test compound formulated with DMSO and Tween20 and diluted in water. The leaf disks are inoculated by shaking powdery mildew infected plants above the test plates 1 day after application.

[2] = system: Botrvotinia fuckeliana (Botrvtis cinerea); assay: Botryotinia fuckeliana / liquid culture (gray mould); format: cell-based; details: Botrytis cinerea, 200 ppm in the formulation, inhibition of growth determined photometrically, compared to untreated checks, read-out: disease control
Protocol: Botrvotinia fuckeliana (Botrvtis cinerea)/Liquid Culture (Gray Mould) Conidia of the fungus from cryogenic storage are directly mixed into nutrient broth (Vogels broth). After placing a (DMSO) solution of test compound into a microtiter plate (96-well format), the nutrient broth containing the fungal spores is added. The test plates are incubated at 24° C. and the inhibition of growth is determined photometrically 3-4 days after application.

Gaeumannomyces graminis = Gaeumannomyces graminis / liquid culture (take-all of cereals); format: cell-based; details: 200 ppm in the formulation, inhibition of growth determined photometrically, compared to untreated control, read-out: disease control
Protocol: Gaeumannomyces graminis/Liquid Culture (Take-All of Cereals) Mycelial fragments of the fungus from cryogenic storage were directly mixed into nutrient broth (PDB potato dextrose broth). After placing a (DMSO) solution of test compound into a microtiter plate (96-well format), the nutrient broth containing the fungal spores is added. The test plates are incubated at 24° C. and the inhibition of growth is determined photometrically 4-5 days after application.

[3] = system: Glomerella lacenarium (Colletotrichum lacenarium); assay: Glomerella lagenarium / liquid culture (anthracnose); format: cell-based; details: 200 ppm in the formulation, inhibition of growth measured photometrically, compared to untreated checks, read-out: disease control
Protocol: Glomerella lacenarium (Colletotrichum lacenarium)/Liquid Culture (Anthracnose) Conidia of the fungus from cryogenic storage are directly mixed into nutrient broth (PDB potato dextrose broth). After placing a (DMSO) solution of test compound into a microtiter plate (96-well format), the nutrient broth containing the fungal spores is added. The test plates are incubated at 24° C. and the inhibition of growth is measured photometrically 3 to 4 days after application.

[4] = system: Monocraphella nivalis (Microdochium nivale); assay: Monographella nivalis / liquid culture (foot rot cereals); format: cell-based; details: 200 ppm in the formulation, inhibition of growth determined photometrically, compared to untreated checks, read-out: disease control
Protocol: Monocraphella nivalis (Microdochium nivale)/Liquid Culture (Foot Rot Cereals) Conidia of the fungus from cryogenic storage are directly mixed into nutrient broth (PDB potato dextrose broth). After placing a (DMSO) solution of test compound into a microtiter plate (96-well format), the nutrient broth containing the fungal spores is added. The test plates are incubated at 24° C. and the inhibition of growth is determined photometrically 4-5 days after application.

[5] = system: Mycosphaerella arachidis (Cercospora arachidicola); assay: Mycosphaerella arachidis / liquid culture (early leaf spot); format: cell-based; details: 200 ppm in the formulation, inhibition of growth determined photometrically, compared to untreated checks, read-out: disease control
Protocol: Mycosphaerella arachidis (Cercospora arachidicola)/Liquid Culture (Early Leaf Spot) Conidia of the fungus from cryogenic storage are directly mixed into nutrient broth (PDB potato dextrose broth). After placing a (DMSO) solution of test compound into a microtiter plate (96-well format), the nutrient broth containing the fungal spores is added. The test plates are incubated at 24° C. and the inhibition of growth is determined photometrically 4-5 days after application.

[6] = system: Mycosphaerella raminicola (Septoria tritici); assay: Mycosphaerella graminicola / liquid culture (Septoria blotch); format: cell-based; details: 200 ppm in the formulation, inhibition of growth determined photometrically, compared to untreated checks, read-out: disease control
Protocol: Mycosphaerella raminicola (Septoria tritici)/Liquid Culture (Septoria blotch) Conidia of the fungus from cryogenic storage are directly mixed into nutrient broth (PDB potato dextrose broth). After placing a (DMSO) solution of test compound into a microtiter plate (96-well format), the nutrient broth containing the fungal spores is added. The test plates are incubated at 24° C. and the inhibition of growth is determined photometrically 4 to 5 days after application.

[7] = system: Puccinia recondita f. Sp. Tritici; assay: Puccinia recondita f. sp. tritici / wheat / leaf disc preventative (brown rust); format: in vivo; details: foliar, 200 ppm in the formulation, wheat leaf segments cv. Kanzler, compared to untreated checks, read-out: disease control
Pyrenophora teres = Pyrenophora teres / barley / leaf disc preventative (net blotch); format: in vivo; details: foliar, 200 ppm of the formulation, barley leaf segments cv. Hasso, compared to untreated checks, read-out: disease control
Protocol: Pyrenophora teres/Barley/Leaf Disc Preventative (Net Blotch) Barley leaf segments cv. Hasso are placed on agar in a multiwell plate (24-well format) and sprayed with the test compound formulated with DMSO and Tween20 and diluted in water. The leaf segments are inoculated with a spore suspension of the fungus 2 days after application. The inoculated leaf segments are incubated at 20° C. and 65% rh under a light regime of 12 h light/12 h darkness in a climate cabinet and the activity of a compound is assessed as disease control compared to untreated when an appropriate level of disease damage appears in untreated check leaf segments (5 to 7 days after application).

[8] = system: Magnaporthe risea (Pyricularia oryzae); assay: whole plant or invertebrate; format: in vivo; details: foliar, read-out: disease control

CC(NC(=O)c1nc(Nc2cc(F)cc(F)c2)sc1Br)C1CCCCC1 (stereo not shown) [Compound I.e.2, 5-bromo-N-(1-cyclohexylethyl)-2-(3,5-difluoroanilino)thiazole-4-carboxamide]
≥ 80%: pest or weed control at 200 ppm [1] | inhibition of growth at 200 ppm [2] | inhibition of growth at 200 ppm (Gaeumannomyces graminis) | inhibition of growth at 200 ppm [3] | inhibition of growth at 200 ppm [4] | inhibition of growth at 200 ppm [5] | inhibition of growth at 200 ppm [6] | pest or weed control at 200 ppm [7] | pest or weed control at 200 µg/mL (Pyrenophora teres)

Cc1sc(Nc2cc(F)cc(F)c2)nc1C(=O)NC(C)(C#N)C(C)C (stereo not shown) [Compound I.n.3, N-(1-cyano-1,2-dimethyl-propyl)-2-(3,5-difluoroanilino)-5-methyl-thiazole-4-carboxamide]
≥ 80%: pest or weed control at 200 ppm [1] | inhibition of growth at 200 ppm [2] | inhibition of growth at 200 ppm (Gaeumannomyces graminis) | inhibition of growth at 200 ppm [3] | pest or weed control at 200 ppm [8] | inhibition of growth at 200 ppm [4] | inhibition of growth at 200 ppm [5] | inhibition of growth at 200 ppm [6] | pest or weed control at 200 ppm [7]

CC12CCCC(NC(=O)c3nc(Nc4cc(F)cc(F)c4)sc3Br)C1CC2 (stereo not shown) [I.ah.2, 5-bromo-2-(3,5-difluoroanilino)-N-(6-methyl-2-bicyclo[4.2.0]octanyl)thiazole-4-carboxamide]
≥ 80%: pest or weed control at 200 ppm [1] | inhibition of growth at 200 ppm [2] | inhibition of growth at 200 ppm (Gaeumannomyces graminis) | inhibition of growth at 200 ppm [3] | pest or weed control at 200 ppm [8] | inhibition of growth at 200 ppm [4] | inhibition of growth at 200 ppm [6] | pest or weed control at 200 ppm [7]

Cc1sc(Nc2cc(F)cc(F)c2)nc1C(=O)NC1CCCC2(C)CCC12 (stereo not shown) [I.ah.3, 2-(3,5-difluoroanilino)-5-methyl-N-(6-methyl-2-bicyclo[4.2.0]octanyl)thiazole-4-carboxamide]
≥ 80%: inhibition of growth at 200 ppm [2] | inhibition of growth at 200 ppm (Gaeumannomyces graminis) | inhibition of growth at 200 ppm [3] | inhibition of growth at 200 ppm [4] | inhibition of growth at 200 ppm [5] | inhibition of growth at 200 ppm [6]

Cc1sc(Nc2cc(F)cc(F)c2)nc1C(=O)NC(C)C1CCCCC1 (stereo not shown) [I.e.3, N-(1-cyclohexylethyl)-2-(3,5-difluoroanilino)-5-methyl-thiazole-4-carboxamide]
≥ 80%: pest or weed control at 200 ppm [1] | inhibition of growth at 200 ppm (Gaeumannomyces graminis) | inhibition of growth at 200 ppm [3] | pest or weed control at 200 ppm [8] | inhibition of growth at 200 ppm [4] | inhibition of growth at 200 ppm [5] | inhibition of growth at 200 ppm [6] | pest or weed control at 200 ppm [7] | pest or weed control at 200 µg/mL (Pyrenophora teres)

O=C(NC1CCC12CCC2)c1nc(Nc2cc(F)cc(F)c2)sc1Br (stereo not shown) [I.r.2, 5-bromo-2-(3,5-difluoroanilino)-N-spiro[3.3]heptan-7-yl-thiazole-4-carboxamide]
≥ 80%: pest or weed control at 200 ppm [1] | inhibition of growth at 200 ppm [2] | inhibition of growth at 200 ppm (Gaeumannomyces graminis) | inhibition of growth at 200 ppm [3] | pest or weed control at 200 ppm [8] | inhibition of growth at 200 ppm [4] | inhibition of growth at 200 ppm [5] | inhibition of growth at 200 ppm [6] | pest or weed control at 200 ppm [7] | pest or weed control at 200 µg/mL (Pyrenophora teres)

Cc1sc(Nc2cc(F)cc(F)c2)nc1C(=O)NC1CCC12CCC2 (stereo not shown) [I.r.3, 2-(3,5-difluoroanilino)-5-methyl-N-spiro[3.3]heptan-7-yl-thiazole-4-carboxamide]
≥ 80%: pest or weed control at 200 ppm [1] | inhibition of growth at 200 ppm [2] | inhibition of growth at 200 ppm (Gaeumannomyces graminis) | inhibition of growth at 200 ppm [3] | pest or weed control at 200 ppm [8] | inhibition of growth at 200 ppm [4] | inhibition of growth at 200 ppm [5] | inhibition of growth at 200 ppm [6] | pest or weed control at 200 ppm [7] | pest or weed control at 200 µg/mL (Pyrenophora teres)

Cc1sc(Nc2cc(F)cc(F)c2)nc1C(=O)NC1CCC12CCCC2 (stereo not shown) [I.s.3, 2-(3,5-difluoroanilino)-5-methyl-N-spiro[3.4]octan-3-yl-thiazole-4-carboxamide]
≥ 80%: pest or weed control at 200 ppm [1] | inhibition of growth at 200 ppm (Gaeumannomyces graminis) | inhibition of growth at 200 ppm [3] | pest or weed control at 200 ppm [8] | inhibition of growth at 200 ppm [4] | inhibition of growth at 200 ppm [5] | inhibition of growth at 200 ppm [6] | pest or weed control at 200 ppm [7] | pest or weed control at 200 µg/mL (Pyrenophora teres)

CC1(C)C2CCCC2C1NC(=O)c1nc(Nc2cc(F)cc(F)c2)sc1Br (stereo not shown) [I.y.2, 5-bromo-2-(3,5-difluoroanilino)-N-(6,6-dimethyl-7-bicyclo[3.2.0]heptanyl)thiazole-4-carboxamide]
≥ 80%: pest or weed control at 200 ppm [1] | inhibition of growth at 200 ppm [2] | inhibition of growth at 200 ppm (Gaeumannomyces graminis) | inhibition of growth at 200 ppm [3] | pest or weed control at 200 ppm [8] | inhibition of growth at 200 ppm [4] | inhibition of growth at 200 ppm [5] | inhibition of growth at 200 ppm [6] | pest or weed control at 200 ppm [7] | pest or weed control at 200 µg/mL (Pyrenophora teres)

Cc1sc(Nc2cc(F)cc(F)c2)nc1C(=O)NC1C2CCCC2C1(C)C (stereo not shown) [I.y.3, 2-(3,5-difluoroanilino)-N-(6,6-dimethyl-7-bicyclo[3.2.0]heptanyl)-5-methyl-thiazole-4-carboxamide]
≥ 80%: pest or weed control at 200 ppm [1] | inhibition of growth at 200 ppm (Gaeumannomyces graminis) | inhibition of growth at 200 ppm [3] | pest or weed control at 200 ppm [8] | inhibition of growth at 200 ppm [4] | inhibition of growth at 200 ppm [5] | inhibition of growth at 200 ppm [6] | pest or weed control at 200 ppm [7]
